Data: patent US20230165252A1, “ACTIVE COMPOUND COMBINATIONS” (Bayer Aktiengesellschaft, priority 2020, published 2023)
Like-named read-outs stand apart in the source and are kept apart here.

Columns and labels:
Assay type in all cases: cell-based
Alternaria alternate = assay: in vitro-Test with Alternaria alternate (microtiter growth inhibition); conditions: Alternaria, applied alone, read-out: Efficacy
Summary of the method: (§1)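 Growth inhibition in potato dextrose broth inoculated with spores or mycelium, over solvent-evaporated compound films, was followed photometrically at 620 nm across 3-5 days at 20° C. Synergy for mixtures is claimed when observed efficacy exceeds the expected value E.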

Cercospora beticola = assay: in vitro-Test with Cercospora beticola (microtiter growth inhibition); conditions: Cercospora beticola, read-out: Efficacy %
Summary of the method: as §1

[1] = system: Colletotrichum lindemuthianum; assay: in vitro-Test with Colletotrichum lindemuthianum (microtiter growth inhibition); conditions: Colletotrichum lindemuthianum, read-out: Efficacy %
Procedure: The degree of efficacy expressed in % is denoted: 0% means an efficacy, which corresponds to that of the control, while an efficacy of 100% means that no disease is observed.
If the actual fungicidal activity exceeds the calculated value, then the activity of the combination is super-additive, i.e. a synergistic effect exists. In this case, the efficacy, which was actually observed, must be greater than the value for the expected efficacy (E), that was calculated from the abovementioned formula.
Example: In Vitro-Test with Fungal Microorganisms
Wells of 96-well microtiter plates are filled with 10 μl of a preparation of test compound or compound combination in methanol+emulsifier alkylaryl-polyglycol-ether. Thereafter, the solvent is evaporated in a hood. At the next step, 100 μl of liquid potato dextrose medium is given into each well, that has been amended with an appropriate concentration of spores or mycelium suspension of the test fungus.
With the aid of a photometer, the extinction in all wells is measured at the wavelength of 620 nm.
The microtiter plates are incubated at 20° C. and 85% relative humidity. The inhibition of growth is determined again photometrically 3-5 days after the application. Efficacy is calculated in relation to the untreated control, 0% efficacy means fungal growth as high as in untreated control while 100% efficacy means no fungal growth is measured.

Cordana musae = assay: in vitro-Test with Cordana musae (microtiter growth inhibition); conditions: Neocordana musae, single substance, read-out: Efficacy
Summary of the method: as §1

Diaporthe citri = assay: in vitro-Test with Diaporthe citri (microtiter growth inhibition); conditions: Diaporthe citri, read-out: Efficacy; for inhibition of growth at 0.02 ppm: 0.020 ppm
Summary of the method: as §1

Fusarium culmorum = assay: in vitro-Test with Fusarium culmorum (microtiter growth inhibition); conditions: Fusarium culmorum, read-out: Efficacy
Summary of the method: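 Steps: dry the compound (methanol with alkylaryl-polyglycol-ether) in each well; add potato dextrose liquid medium containing fungal spores or mycelium; record 620 nm extinction; incubate at 20° C. and 85% relative humidity; re-measure photometrically after 3-5 days. Efficacy in % against untreated wells.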

Parastagonospora nodorum = assay: in vitro-Test with Parastagonospora nodorum (microtiter growth inhibition); conditions: Parastagonospora nodorum, compound alone, read-out: Efficacy %
Summary of the method: as §1

[2] = system: Ustilago segetum var. avenae; assay: in vitro-Test with Ustilago segetum var. avenae (microtiter growth inhibition); conditions: single compound, read-out: Efficacy %
Summary of the method: as §1

For `Cc1ccc(C(F)(F)CNC(=O)c2c(Oc3cccc(C4CC4)c3F)nnc(Cl)c2C)cc1C` [Compound I-749, 6-chloro-3-(3-cyclopropyl-2-fluorophenoxy)-N-[2-(3,4-dimethylphenyl)-2,2-difluoroethyl]-5-methylpyridazine-4-carboxamide], the inhibition of growth at 0.004 ppm (Alternaria alternate; 0.004 ppm) was 0%, the inhibition of growth at 0.02 ppm (Alternaria alternate; 0.020 ppm) was 14% and the inhibition of growth at 0.1 ppm (Alternaria alternate; 0.1 ppm) was 24%. It also gave an inhibition of growth at 0.5 ppm (Alternaria alternate; 0.5 ppm) of 100%, an inhibition of growth at 0.004 ppm (Cercospora beticola; alone, 0.004 ppm) of 0% and an inhibition of growth at 0.02 ppm (Cercospora beticola; alone, 0.020 ppm) of 0%. It also gave an inhibition of growth at 0.1 ppm (Cercospora beticola; alone, 0.1 ppm) of 8%, an inhibition of growth at 0.5 ppm (Cercospora beticola; alone, 0.5 ppm) of 22% and an inhibition of growth at 0.004 ppm (Cercospora beticola; applied alone at 0.004 ppm) of 0%. It also gave an inhibition of growth at 0.02 ppm (Cercospora beticola; applied alone at 0.020 ppm) of 0%, an inhibition of growth at 0.1 ppm (Cercospora beticola; applied alone at 0.1 ppm) of 8% and an inhibition of growth at 0.5 ppm (Cercospora beticola; applied alone at 0.5 ppm) of 22%. For the same compound, the inhibition of growth at 0.004 ppm ([1]; applied alone at 0.004 ppm) was 1%, the inhibition of growth at 0.02 ppm ([1]; applied alone at 0.020 ppm) was 19% and the inhibition of growth at 0.1 ppm ([1]; applied alone at 0.1 ppm) was 100%. For the same compound, the inhibition of growth at 0.5 ppm ([1]; applied alone at 0.5 ppm) was 100%, the inhibition of growth at 0.004 ppm (Cordana musae; 0.004 ppm) was 0% and the inhibition of growth at 0.02 ppm (Cordana musae; 0.020 ppm) was 64%. The inhibition of growth at 0.1 ppm (Cordana musae; 0.1 ppm) was 100%, the inhibition of growth at 0.5 ppm (Cordana musae; 0.5 ppm) was 100% and the inhibition of growth at 0.004 ppm (Diaporthe citri) was 0%. It also gave an inhibition of growth at 0.02 ppm (Diaporthe citri) of 0%, an inhibition of growth at 0.1 ppm (Diaporthe citri) of 0% and an inhibition of growth at 0.5 ppm (Diaporthe citri) of 100%. For the same compound, the inhibition of growth at 0.004 ppm (Diaporthe citri; applied alone) was 0%, the inhibition of growth at 0.02 ppm (Diaporthe citri; applied alone) was 0% and the inhibition of growth at 0.1 ppm (Diaporthe citri; applied alone) was 0%. It also gave an inhibition of growth at 0.5 ppm (Diaporthe citri; applied alone) of 100%, an inhibition of growth at 0.004 ppm (Fusarium culmorum; 0.004 ppm) of 0% and an inhibition of growth at 0.02 ppm (Fusarium culmorum; 0.020 ppm) of 10%. For the same compound, the inhibition of growth at 0.1 ppm (Fusarium culmorum; 0.1 ppm) was 11%, the inhibition of growth at 0.5 ppm (Fusarium culmorum; 0.5 ppm) was 18% and the inhibition of growth at 0.004 ppm (Parastagonospora nodorum; 0.004 ppm) was 0%. For the same compound, the inhibition of growth at 0.02 ppm (Parastagonospora nodorum; 0.020 ppm) was 0%, the inhibition of growth at 0.1 ppm (Parastagonospora nodorum; 0.1 ppm) was 92% and the inhibition of growth at 0.5 ppm (Parastagonospora nodorum; 0.5 ppm) was 100%. The inhibition of growth at 0.004 ppm ([2]; 0.004 ppm) was 1%, the inhibition of growth at 0.02 ppm ([2]; 0.020 ppm) was 0% and the inhibition of growth at 0.1 ppm ([2]; 0.1 ppm) was 0%. For the same compound, the inhibition of growth at 0.5 ppm ([2]; 0.5 ppm) was 0%.
